Molecular target: T1, full-length human PKCι (Homo sapiens, UniProt P41743)
T1 construct: Recombinant, full-length human PKCι expressed in Sf21 insect cells is also commercially available; purchased EMD Millipore; host or cells: Sf21 insect cells (baculovirus)
T1 sequence (P41743 1-596): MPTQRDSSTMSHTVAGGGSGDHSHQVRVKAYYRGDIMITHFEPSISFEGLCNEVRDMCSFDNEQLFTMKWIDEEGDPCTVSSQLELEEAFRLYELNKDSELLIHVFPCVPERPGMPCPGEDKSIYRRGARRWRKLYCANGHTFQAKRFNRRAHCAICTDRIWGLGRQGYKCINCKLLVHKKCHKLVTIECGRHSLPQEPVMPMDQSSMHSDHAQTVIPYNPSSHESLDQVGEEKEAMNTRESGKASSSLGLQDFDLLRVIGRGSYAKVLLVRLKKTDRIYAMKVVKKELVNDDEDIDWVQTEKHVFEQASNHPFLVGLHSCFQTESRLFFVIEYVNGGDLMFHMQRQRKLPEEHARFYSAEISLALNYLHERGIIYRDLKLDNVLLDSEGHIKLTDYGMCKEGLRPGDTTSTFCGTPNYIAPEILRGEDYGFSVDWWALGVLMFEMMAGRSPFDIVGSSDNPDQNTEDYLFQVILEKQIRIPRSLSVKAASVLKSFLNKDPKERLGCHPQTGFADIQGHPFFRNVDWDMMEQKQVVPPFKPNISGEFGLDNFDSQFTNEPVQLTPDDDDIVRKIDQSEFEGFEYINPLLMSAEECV
Assay: PKCι IC50 IMAP fluorescence polarisation assay, full-length enzyme, 150 μM ATP
Format: biochemical
Conditions: read-out: IC50 in IMAP assay against full length PKCi at 150 μM ATP
Summary of the method: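 IMAP fluorescence polarisation kinase assay: 15 pM baculovirus-expressed human PKCiota with 100 nM FAM-pseudosubstrate peptide and 150 μM ATP, 1 h at 25 °C. IMAP detection reagent then 2 h at 25 °C before FP measurement. Inhibition referenced to no-compound and no-enzyme controls for IC50 fitting.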

IC50 [nM]	SMILES
< 100	NC[C@@H]1CCN(c2nc(-c3ccnc4[nH]c5ccccc5c34)nc3cncc(C4CCC4)c23)C1 [Example 248, C-{(S)-1-[5-Cyclobutyl-2-(9H-pyrido[2,3-b]indol-4-yl)-pyrido[3,4-d]pyrimidin-4-yl]-pyrrolidin-3-yl}-methylamine]
< 100	NC[C@H]1CCN(c2nc(-c3ccnc4[nH]c5ccccc5c34)nc3cncc(C4CCC4)c23)C1 [Example 249, C-{(R)-1-[5-Cyclobutyl-2-(9H-pyrido[2,3-b]indol-4-yl)-pyrido[3,4-d]pyrimidin-4-yl]-pyrrolidin-3-yl}-methylamine]
< 100	c1ccc2c(c1)[nH]c1nccc(-c3nc(N4CCC5(CCCNC5)C4)c4c(C5CCC5)cncc4n3)c12 (stereo not shown) [Example 250, 4-[5-Cyclobutyl-4-(2,7-diaza-spiro[4.5]dec-2-yl)-pyrido[3,4-d]pyrimidin-2-yl]-9H-pyrido[2,3-b]indole]
1000 to 10000	c1ccc2c(c1)[nH]c1nccc(-c3nc(NCC4COCCN4)c4c(C5CCC5)cncc4n3)c12 (stereo not shown) [Example 251, [5-Cyclobutyl-2-(9H-pyrido[2,3-b]indol-4-yl)-pyrido[3,4-d]pyrimidin-4-yl]-morpholin-3-ylmethyl-amine]
1000 to 10000	O[C@@H]1CCN(c2nc(-c3ccnc4[nH]c5ccccc5c34)nc3cncc(C4CCC4)c23)C1 [Example 252, (R)-1-[5-Cyclobutyl-2-(9H-pyrido[2,3-b]indol-4-yl)-pyrido[3,4-d]pyrimidin-4-yl]-pyrrolidin-3-ol]
1000 to 10000	O[C@H]1CCN(c2nc(-c3ccnc4[nH]c5ccccc5c34)nc3cncc(C4CCC4)c23)C1 [Example 253, (S)-1-[5-Cyclobutyl-2-(9H-pyrido[2,3-b]indol-4-yl)-pyrido[3,4-d]pyrimidin-4-yl]-pyrrolidin-3-ol]
< 100	CC1(C)CNCC[C@@H]1Nc1nc(-c2ccnc(Nc3c(F)cccc3F)c2)nc2cncc(C3CC3)c12 [Example 254, {5-Cyclopropyl-2-[2-(2,6-difluoro-phenylamino)-pyridin-4-yl]-pyrido[3,4-d]pyrimidin-4-yl}-((S)-3,3-dimethyl-piperidin-4-yl)-amine]
< 100	CC1(C)CNCC[C@@H]1Nc1nc(-c2ccnc(Nc3c(F)cccc3F)c2)nc2cncc(C3CCC3)c12 [Example 255, {5-Cyclobutyl-2-[2-(2,6-difluoro-phenylamino)-pyridin-4-yl]-pyrido[3,4-d]pyrimidin-4-yl}-((S)-3,3-dimethyl-piperidin-4-yl)-amine]
< 100	Fc1ccc(F)c(Nc2cc(-c3nc(N4CCOC5CNCC54)c4c(C5CCC5)cncc4n3)ccn2)n1 (stereo not shown) [Example 256, {4-[5-Cyclobutyl-4-(hexahydro-pyrrolo[3,4-b]-1,4-oxazin-4-yl)-pyrido[3,4-d]pyrimidin-2-yl]-pyridin-2-yl}-(3,6-difluoro-pyridin-2-yl)-amine]
< 100	Cc1cc2c(-c3nc(N4CCOC5CNCC54)c4c(C5CCC5)cncc4n3)ccnc2[nH]1 (stereo not shown) [Example 257, 5-Cyclobutyl-4-(hexahydro-pyrrolo[3,4-b]-1,4-oxazin-4-yl)-2-(2-methyl-1H-pyrrolo[2,3-b]pyridin-4-yl)-pyrido[3,4-d]pyrimidine]
< 100	Fc1cccc(F)c1Nc1cc(-c2nc(N3CCOC4CNCC43)c3c(C4CCC4)cncc3n2)ccn1 (stereo not shown) [Example 258, {4-[5-Cyclobutyl-4-(hexahydro-pyrrolo[3,4-b]-1,4-oxazin-4-yl)-pyrido[3,4-d]pyrimidin-2-yl]-pyridin-2-yl}-(2,6-difluoro-phenyl)-amine]
< 100	Fc1cccnc1-c1cc2c(-c3nc(N4CCOC5CNCC54)c4c(C5CCC5)cncc4n3)ccnc2[nH]1 (stereo not shown) [Example 259, 5-Cyclobutyl-2-[2-(3-fluoro-pyridin-2-yl)-1H-pyrrolo[2,3-b]pyridin-4-yl]-4-(hexahydro-pyrrolo[3,4-b]-1,4-oxazin-4-yl)-pyrido[3,4-d]pyrimidine]
100 to 1000	CC1CC(Nc2nc(-c3ccnc(Nc4ncccc4F)c3)nc3cncc(C4CC4)c23)CC(C)N1 (stereo not shown) [Example 260, {5-Cyclopropyl-2-[2-(3-fluoro-pyridin-2-ylamino)-pyridin-4-yl]-pyrido[3,4-d]pyrimidin-4-yl}-(2,6-dimethyl-piperidin-4-yl)-amine]
< 100	CC1(C)CNCC[C@@H]1Nc1nc(-c2ccnc(Nc3cccnc3)c2)nc2cncc(C3CCC3)c12 [Example 264, 5-cyclobulyl-N-[(4S)-3,3-dimethyl-4-piperidyl]-2-[2-(3-pyridylamino)-4-pyridyl]pyrido[3,4-d]pyrimidin-4-amine]
100 to 1000	CC1(C)CNCC[C@@H]1Nc1nc(-c2ccnc(Nc3cncc(F)c3)c2)nc2cncc(C3CC3)c12 [Example 265, 5-cyelopropyl-N-[(4S)-3,3-dimethyl-4-piperidyl]-2-[2-[(5-fluoro-3-pyridyl)amino]-4-pyridyl]pyrido[3,4-d]pyrimidin-4-amine]
100 to 1000	CC1(C)CNCC[C@@H]1Nc1nc(-c2ccnc(Nc3cncc(Cl)c3)c2)nc2cncc(C3CC3)c12 [Example 266, 2-[2-[(5-chloro-3-pyridyl)amino]-4-pyridyl]-5-cyclopropyl-N-[(4S)-3,3-dimethyl-4-piperidyl]pyrido[3,4-d]pyrimidin-4-amine]
1000 to 10000	CC1(C)CNCC[C@@H]1Nc1nc(-c2ccnc(N[C@H](C(=O)O)c3ccccc3)c2)nc2cncc(C3CC3)c12 [Example 267, (2S)-2-[[4-[5-cyclopropyl-4-[[(4S)-3,3-dimethyl-4-piperidyl]amino]pyrido[3,4-d]pyrimidin-2-yl]-2-pyridyl]amino]-2-phenyl-acetic acid]
< 100	COc1cncc2nc(-c3ccnc(Nc4nc(F)ccc4F)c3)nc(N[C@H]3CCNCC3(C)C)c12 [Example 268, 2-[2-[(3,6-difluoro-2-pyridyl)amino]-4-pyridyl]-N-[(4S)-3,3-dimethyl-4-piperidyl]-5-methoxy-pyrido[3,4-d]pyrimidin-4-amine]
100 to 1000	COc1cncc2nc(-c3ccnc(Nc4ncccc4F)c3)nc(N[C@H]3CCNCC3(C)C)c12 [Example 269, N-[(4S)-3,3-dimethyl-4-piperidyl]-2-[2-[(3-fluoro-2-pyridyl)amino]-4-pyridyl]-5-methoxy-pyrido[3,4-d]pyrimidin-4-amine]
< 100	Cc1cccc(Nc2cc(-c3nc(N[C@H]4CCNCC4(C)C)c4c(C5CCC5)cncc4n3)ccn2)n1 [Example 271, {5-Cyclobutyl-2-[2-(6-methyl-pyridin-2-ylamino)-pyridin-4-yl]-pyrido[3,4-d]pyrimidin-4-yl}-((S)-3,3-dimethyl-piperidin-4-yl)-amine]
< 100	Cc1nc(Nc2cc(-c3nc(N[C@H]4CCNCC4(C)C)c4c(C5CCC5)cncc4n3)ccn2)ccc1C#N [Example 272]
< 100	CC1(C)CNCC[C@@H]1Nc1nc(-c2ccnc(Nc3nc4ccccc4o3)c2)nc2cncc(C3CCC3)c12 [Example 274, {2-[2-(Benzoxazol-2-ylamino)-pyridin-4-yl]-5-cyclobutyl-pyrido[3,4-d]pyrimidin-4-yl}-((S)-3,3-dimethyl-piperidin-4-yl)-amine]
< 100	CC1(C)CNCC[C@@H]1Nc1nc(-c2ccnc(Nc3nc4ccccn4n3)c2)nc2cncc(C3CCC3)c12 [Example 275, {5-Cyclobutyl-2-[2-([1,2,4]triazolo[1,5-a]pyridin-2-ylamino)-pyridin-4-yl]-pyrido[3,4-d]pyrimidin-4-yl}-((S)-3,3-dimethyl-piperidin-4-yl)-amine]
< 100	CC1(C)CNCC[C@@H]1Nc1nc(-c2ccnc(Nc3nc(F)c(F)cc3F)c2)nc2cncc(C3CC3)c12 [Example 278, {5-Cyclopropyl-2-[2-(3,5,6-trifluoro-pyridin-2-ylamino)-pyridin-4-yl]-pyrido[3,4-d]pyrimidin-4-yl}-((S)-3,3-dimethyl-piperidin-4-yl)-amine]
< 100	Cn1c(Nc2cc(-c3nc(N[C@H]4CCNCC4(C)C)c4c(C5CCC5)cncc4n3)ccn2)nc2ccccc21 [Example 281]
< 100	Cn1nc(Nc2cc(-c3nc(N[C@H]4CCNCC4(C)C)c4c(C5CCC5)cncc4n3)ccn2)c2ccccc21 [Example 284, {5-Cyclobutyl-2-[2-(1-methyl-1H-indazol-3-ylamino)-pyridin-4-yl]-pyrido[3,4-d]pyrimidin-4-yl}-((S)-3,3-dimethyl-piperidin-4-yl)-amine]
100 to 1000	CC1(C)CNCC[C@@H]1Nc1nc(-c2cccc(Nc3nc(F)ccc3F)c2)nc2cncc(C3CCC3)c12 [Example 315, {5-Cyclobutyl-2-[3-(3,6-difluoro-pyridin-2-ylamino)-phenyl]-pyrido[3,4-d]pyrimidin-4-yl}-((S)-3,3-dimethyl-piperidin-4-yl)-amine]
< 100	CC1(C)CNCC[C@@H]1Nc1nc(-c2ccnc(Nc3ncc(Cl)cc3F)c2)nc2cncc(C3CCC3)c12 [Example 316, {2-[2-(5-Chloro-3-fluoro-pyridin-2-ylamino)-pyridin-4-yl]-5-cyclobutyl-pyrido[3,4-d]pyrimidin-4-yl}-((S)-3,3-dimethyl-piperidin-4-yl)-amine]

From patent US10414763B2 (CANCER RESEARCH TECHNOLOGY LIMITED, priority 2014, dated 2019)
